Experimental data taken from ChEMBL document CHEMBL1151443, “Activity of the novel macrolide BAL19403 against ribosomes from erythromycin-resistant Propionibacterium acnes” (Antimicrob Agents Chemother, 2007).
In brackets after ≈: the same amount, converted by molar mass.

What was measured:
[1] = Inhibition of ribosomal activity in erythromycin-sensitive Escherichia coli BL21 S30 extracts assessed as inhibition of luciferase activity by transcriptional and translational assay; type: subcellular, Ribosome
[2] = molecular target: Bacterial 70S ribosome; test: Inhibition of ribosomal activity in erythromycin-resistant Propionibacterium acnes P95 with G2057A mutation in domain V of 23S rRNA assessed as luciferase production by transcriptional and translational assay; type: subcellular, Cutibacterium acnes
[3] = molecular target: Bacterial 70S ribosome; test: Inhibition of ribosomal activity in erythromycin-sensitive Escherichia coli BL21 assessed as luciferase production by transcriptional and translational assay; type: subcellular
[4] = molecular target: Bacterial 70S ribosome; test: Inhibition of ribosomal activity in erythromycin-sensitive Propionibacterium acnes EG7NS assessed as luciferase production by transcriptional and translational assay; type: subcellular, Cutibacterium acnes
[5] = molecular target: Bacterial 70S ribosome; test: Inhibition of ribosomal activity in erythromycin-resistant Propionibacterium acnes SW54EA with A2058G mutation in domain V of 23S rRNA assessed as luciferase production by transcriptional and translational assay; type: subcellular, Cutibacterium acnes
[6] = molecular target: Bacterial 70S ribosome; test: Displacement of [14C]ERY from erythromycin-sensitive Escherichia coli BL21 ribosome; type: subcellular
[7] = molecular target: Bacterial 70S ribosome (Bacteria) (UniProt P0A7V0+P60723+P0AG67+P0A7R5+P0A7R9+P0A7S3+P0A7S9+P0AG59+P0ADZ4+P0A7T3+P0AG63+P0A7T7+P0A7U3+P0A7U7+P68679+P0A7V3+P0A7V8+P0A7W1+P02358+P02359+P0A7W7+P0A7X3+P0A7J3+P0A7J7+P0AA10+P0ADY3+P02413+P0ADY7+P0AG44+P0C018+P0A7K6+P0A7L0+P0A7L3+P0AG48+P61175+P0ADZ0+P60624+P68919+P0A7L8+P0A7M2+P0A7M6+P60422+P0AG51+P0A7N1+P0A7M9+P0A7N4+P0A7N9+P0A7P5+P0A7Q1+Q2EEQ2+P0A7Q6+P60438+P62399+P0AG55+P0A7K2); test: (§1) Inhibition of ribosomal activity in erythromycin-resistant Propionibacterium acnes GE4E carrying Erm(X) gene assessed as luciferase production by transcriptional and translational assay; type: subcellular; conditions: Cutibacterium acnes, concentration not given here
[8] = molecular target: Bacterial 70S ribosome; test: as §1; type: subcellular, Cutibacterium acnes
[9] = tested on: Cutibacterium acnes; test: Antibacterial activity against erythromycin-resistant Propionibacterium acnes GE4E carrying Erm(X) gene; type: functional
[10] = tested on: Cutibacterium acnes; test: Antibacterial activity against erythromycin-resistant Propionibacterium acnes with G2057A mutation in domain V of 23S rRNA; type: functional
[11] = tested on: Cutibacterium acnes; test: Antibacterial activity against erythromycin-resistant Propionibacterium acnes with A2058G mutation in domain V of 23S rRNA; type: functional
[12] = tested on: Cutibacterium acnes; test: Antibacterial activity against erythromycin-sensitive Propionibacterium acnes EG7NS; type: functional
[13] = tested on: Cutibacterium acnes; test: Antibacterial activity against erythromycin-resistant Propionibacterium acnes P95 with 23S rRNA G2057A mutant; type: functional
[14] = tested on: Cutibacterium acnes; test: Antibacterial activity against erythromycin-resistant Propionibacterium acnes with A2059 mutation in domain V of 23S rRNA; type: functional
[15] = tested on: Escherichia coli; test: Antibacterial activity against Escherichia coli BL21; type: functional
[16] = molecular target: Bacterial 70S ribosome; test: Displacement of [14C]ERY from erythromycin-sensitive Propionibacterium acnes EG7NS ribosome; type: subcellular, Cutibacterium acnes
[17] = molecular target: Bacterial 70S ribosome; test: Displacement of [14C]ERY from ribosome in erythromycin-resistant Propionibacterium acnes P95 with G2057A mutation in domain V of 23S rRNA; type: subcellular, Cutibacterium acnes
[18] = tested on: Cutibacterium acnes; test: Antibacterial activity against erythromycin-resistant Propionibacterium acnes SW54EA with 23S rRNA A2058G mutant; type: functional

Row | Compound | IC50 [1] | IC50 [2] | IC50 [3] | IC50 [4] | IC50 [5] | Kd [6] | inhibition [7] | IC50 [8] | MIC [9] | MIC [10] | MIC [11] | MIC [12] | MIC [13] | MIC [14] | MIC [15] | Kd [16] | Kd [17] | MIC [18]
1 | CC[C@H]1OC(=O)[C@H](C)[C@@H](O[C@H]2C[C@@](C)(OC)[C@@H](O)[C@H](C)O2)[C@H](C)[C@@H](O[C@@H]2O[C@H](C)C[C@H](N(C)C)[C@H]2O)[C@](C)(OC)C[C@@H](C)C(=O)[C@H](C)[C@H]2[C@H](SCCn3cnc4cccnc43)C(=O)O[C@@]21C | 850 nM | 120 nM | 420 nM | 110 nM | 260 nM | 26 nM | 48% | 190 nM |  |  |  |  |  |  |  |  |  | 
2 | CC[C@H]1OC(=O)[C@H](C)[C@@H](O[C@H]2C[C@@](C)(OC)[C@@H](O)[C@H](C)O2)[C@H](C)[C@@H](O[C@@H]2O[C@H](C)C[C@H](N(C)C)[C@H]2O)[C@](C)(O)C[C@@H](C)C(=O)[C@H](C)[C@@H](O)[C@]1(C)O [ERYTHROMYCIN] | 2130 nM | 2200 nM | 760 nM | 170 nM | 87000 nM | 11 nM | 52% | 1900 nM | > 512 µg/mL | 1 µg/mL (≈ 1.36 µM) | > 128 µg/mL | ≤ 0.06 µg/mL | 4 µg/mL (≈ 5.45 µM) | > 128 µg/mL | 128 µg/mL (≈ 174 µM) | 29 nM | > 2100 nM | > 512 µg/mL
